Source: patent publication US10266495B2, “Phenyl quinolinone derivatives as mutant-isocitrate dehydrogenase inhibitors” (FORMA TM2, Inc., priority 2014, dated 2019)

Legend:
[1] = molecular target: IDH1-R132H recombinant protein (Homo sapiens, UniProt O75874, R132H); experiment: IDH1-R132H enzymatic assay (NADPH consumption, diaphorase/resazurin readout); format: biochemical; details: read-out: Enzyme IDH1 R132H IC50 Range
Protocol: (§1) Assays were performed in a 384-well black plate. An aliquot of 250 nL of compound was incubated with 10 μL of 30 nM IDH1-R132H or 10 nM IDH1-R132C recombinant protein in assay buffer (50 mM Tris pH=7.5, 150 mM NaCl, 5 mM MgCl2, 0.1% (w/v) Bovine Serum Albumin, and 0.01% Triton X-100) in each well at 25° C. for 15 minutes. After the plate was centrifuged briefly, an aliquot of 10 μL of 2 mM α-ketoglutarate and 20 μM NADPH solution prepared in assay buffer was then added to each well and the reaction was maintained at 25° C. for 45 minutes. An aliquot of 10 μL of diaphorase solution (0.15 U/mL diaphorase and 30 μM Resazurin in assay buffer) was added to each well. […] The IC50 of a given compound was calculated by fitting the dose response curve of inhibition of NADPH consumption at a given concentration with the four parameter logistic equation.

[2] = molecular target: IDH1-R132C recombinant protein (Homo sapiens, UniProt O75874, R132C); experiment: IDH1-R132C enzymatic assay (NADPH consumption, diaphorase/resazurin readout); format: biochemical; details: read-out: Enzyme IDH1 R132C IC50 Range
Protocol: as §1

IDH1-R132H recombinant protein, sequence (O75874 whole entry R132H): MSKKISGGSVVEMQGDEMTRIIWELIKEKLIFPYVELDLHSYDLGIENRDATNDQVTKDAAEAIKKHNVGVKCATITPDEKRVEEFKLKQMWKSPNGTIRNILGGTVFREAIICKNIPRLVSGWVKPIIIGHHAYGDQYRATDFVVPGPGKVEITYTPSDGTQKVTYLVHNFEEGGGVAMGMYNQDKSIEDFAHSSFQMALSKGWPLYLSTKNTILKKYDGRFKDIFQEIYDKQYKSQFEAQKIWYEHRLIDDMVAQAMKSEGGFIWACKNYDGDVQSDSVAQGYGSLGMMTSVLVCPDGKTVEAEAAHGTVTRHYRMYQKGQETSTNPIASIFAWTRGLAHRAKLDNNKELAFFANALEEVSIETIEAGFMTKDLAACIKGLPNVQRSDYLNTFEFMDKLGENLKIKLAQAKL
IDH1-R132C recombinant protein, sequence (O75874 whole entry R132C): as the sequence (O75874 whole entry R132H) above, with H132C counted along it

| SMILES | IC50 [1] | IC50 [2] |
| --- | --- | --- |
| COc1cc(NC(C)c2cc3cc(Cl)ccc3[nH]c2=O)ccc1C#N (racemic) [Compound I-1, 4-{[1-(6-chloro-2-oxo-1,2-dihydroquinolin-3-yl)ethyl]amino}-2-methoxybenzonitrile] | 10 to 100 nM | 10 to 100 nM |
| COc1cc(NC(C)c2cc3cc(Cl)c(OCc4ccccn4)cc3[nH]c2=O)ccc1C#N (stereo not shown) [Compound I-5, 4-({1-[6-chloro-2-oxo-7-(pyridin-2-ylmethoxy)-1,2-dihydroquinolin-3-yl]ethyl}amino)-2-methoxybenzonitrile] | 10 to 100 nM | 100 to 1000 nM |
| N#Cc1ccc(NCc2cc3cc(Cl)ccc3[nH]c2=O)cc1O [Compound I-8, 4-{[(6-chloro-2-oxo-1,2-dihydroquinolin-3-yl)methyl]amino}-2-hydroxybenzonitrile] | 100 to 1000 nM | > 1000 nM |
| COc1cc(NCc2cc3cc(C)ccc3[nH]c2=O)ccc1-n1cnnn1 [Compound I-16, 3-({[3-methoxy-4-(1H-1,2,3,4-tetrazol-1-yl)phenyl]amino}methyl)-6-methyl-1,2-dihydroquinolin-2-one] | 100 to 1000 nM | > 1000 nM |
| COc1cc2[nH]c(=O)c(CNc3ccc(C#N)c(OC)c3)cc2cc1Cl [Compound I-21, 4-{[(6-chloro-7-methoxy-2-oxo-1,2-dihydroquinolin-3-yl)methyl]amino}-2-methoxybenzonitrile] | 100 to 1000 nM | 100 to 1000 nM |
| COc1cc(NCc2cc3ccc(C)cc3[nH]c2=O)ccc1-n1cnnn1 [Compound I-22, 3-({[3-methoxy-4-(1H-1,2,3,4-tetrazol-1-yl)phenyl]amino}methyl)-7-methyl-1,2-dihydroquinolin-2-one] | 100 to 1000 nM | > 1000 nM |
| COc1cc2[nH]c(=O)c(CNc3ccc(C#N)c(OC)c3)cc2cc1F [Compound I-26, 4-{[(6-fluoro-7-methoxy-2-oxo-1,2-dihydroquinolin-3-yl)methyl]amino}-2-methoxybenzonitrile] | 10 to 100 nM | > 1000 nM |
| COc1cc(NCc2cc3cc(F)ccc3[nH]c2=O)ccc1C#N [Compound I-27, 4-{[(6-fluoro-2-oxo-1,2-dihydroquinolin-3-yl)methyl]amino}-2-methoxybenzonitrile] | > 1000 nM | > 1000 nM |
| COc1cc(NCc2cc3cc(Cl)ccc3[nH]c2=O)ccc1-n1cnnn1 [Compound I-33, 6-chloro-3-({[3-methoxy-4-(1H-1,2,3,4-tetrazol-1-yl)phenyl]amino}methyl)-1,2-dihydroquinolin-2-one] | 100 to 1000 nM | > 1000 nM |
| Cc1cc(NCc2cc3cc(Cl)ccc3[nH]c2=O)ccc1C#N [Compound I-36, 4-{[(6-chloro-2-oxo-1,2-dihydroquinolin-3-yl)methyl]amino}-2-methylbenzonitrile] | 100 to 1000 nM | > 1000 nM |
| Cc1nnnn1-c1ccc(NCc2cc3cc(Cl)ccc3[nH]c2=O)cc1 [Compound I-38, 6-chloro-3-({[4-(5-methyl-1H-1,2,3,4-tetrazol-1-yl)phenyl]amino}methyl)-1,2-dihydroquinolin-2-one] | 100 to 1000 nM | > 1000 nM |
| COc1ccc2cc(CNc3ccc(C#N)c(OC)c3)c(=O)[nH]c2c1 [Compound I-56, 2-methoxy-4-{[(7-methoxy-2-oxo-1,2-dihydroquinolin-3-yl)methyl]amino}benzonitrile] | 100 to 1000 nM | – |
| COc1cc(NCc2cc3cc(Cl)c(O)cc3[nH]c2=O)ccc1C#N [Compound I-57, 4-{[(6-chloro-7-hydroxy-2-oxo-1,2-dihydroquinolin-3-yl)methyl]amino}-2-methoxybenzonitrile] | 10 to 100 nM | – |
| COc1cc(NCc2cc3cc(Cl)c(OCc4ccccn4)cc3[nH]c2=O)ccc1C#N [Compound I-58, 4-({[6-chloro-2-oxo-7-(pyridin-2-ylmethoxy)-1,2-dihydroquinolin-3-yl]methyl}amino)-2-methoxybenzonitrile] | 10 to 100 nM | 100 to 1000 nM |
| COc1cc(NCc2cc3cc(Cl)c(OCC(O)CN4CCOCC4)cc3[nH]c2=O)ccc1C#N (stereo not shown) [Compound I-59, 4-[({6-chloro-7-[2-hydroxy-3-(morpholin-4-yl)propoxy]-2-oxo-1,2-dihydroquinolin-3-yl}methyl)amino]-2-methoxybenzonitrile] | 100 to 1000 nM | > 1000 nM |
| COc1cc(NCc2cc3cc(Cl)c(OCCN4CCOCC4)cc3[nH]c2=O)ccc1C#N [Compound I-60, 4-[({6-chloro-7-[2-(morpholin-4-yl)ethoxy]-2-oxo-1,2-dihydroquinolin-3-yl}methyl)amino]-2-methoxybenzonitrile] | – | 100 to 1000 nM |
| COc1cc(NCc2cc3cc(Cl)c(OCC4CCOCC4)cc3[nH]c2=O)ccc1C#N [Compound I-63, 4-({[6-chloro-7-(oxan-4-ylmethoxy)-2-oxo-1,2-dihydroquinolin-3-yl]methyl}amino)-2-methoxybenzonitrile] | 10 to 100 nM | > 1000 nM |
| COc1cc(NCc2cc3cc(Cl)c(OCc4ccnc(C)c4)cc3[nH]c2=O)ccc1C#N [Compound I-73, 4-[({6-chloro-7-[(2-methylpyridin-4-yl)methoxy]-2-oxo-1,2-dihydroquinolin-3-yl}methyl)amino]-2-methoxybenzonitrile] | 10 to 100 nM | – |
| CCOCCOc1cc2[nH]c(=O)c(CNc3ccc(C#N)c(OC)c3)cc2cc1Cl [Compound I-93, 4-({[6-chloro-7-(2-ethoxyethoxy)-2-oxo-1,2-dihydroquinolin-3-yl]methyl}amino)-2-methoxybenzonitrile] | 100 to 1000 nM | – |

Other lines, results leading:

| IC50 [1] | IC50 [2] | SMILES |
| --- | --- | --- |
| 100 to 1000 nM | > 1000 nM | COc1cc(NCc2cc3cc(Cl)ccc3[nH]c2=O)cc(OC)c1C#N [Compound I-9, 4-{[(6-chloro-2-oxo-1,2-dihydroquinolin-3-yl)methyl]amino}-2,6-dimethoxybenzonitrile] |
| 100 to 1000 nM | > 1000 nM | N#Cc1ccc(NCc2cc3cc(Cl)ccc3[nH]c2=O)cc1OC(F)(F)F [Compound I-10, 4-{[(6-chloro-2-oxo-1,2-dihydroquinolin-3-yl)methyl]amino}-2-(trifluoromethoxy)benzonitrile] |
| 10 to 100 nM | > 1000 nM | COc1cc(NCc2cc3cc(C(C)(C)C)ccc3[nH]c2=O)ccc1C#N [Compound I-24, 4-{[(6-tert-butyl-2-oxo-1,2-dihydroquinolin-3-yl)methyl]amino}-2-methoxybenzonitrile] |
| 10 to 100 nM | > 1000 nM | COc1cc(NCc2cc3cc(C(F)(F)F)ccc3[nH]c2=O)ccc1C#N [Compound I-25, 2-methoxy-4-({[2-oxo-6-(trifluoromethyl)-1,2-dihydroquinolin-3-yl]methyl}amino)benzonitrile] |
| 100 to 1000 nM | > 1000 nM | COc1cc(NCc2cc3ccc(O)cc3[nH]c2=O)ccc1C#N [Compound I-30, 4-{[(7-hydroxy-2-oxo-1,2-dihydroquinolin-3-yl)methyl]amino}-2-methoxybenzonitrile] |
| 100 to 1000 nM | > 1000 nM | COc1cc(NCc2cc3ccccc3[nH]c2=O)ccc1C#N [Compound I-47, 2-methoxy-4-{[(2-oxo-1,2-dihydroquinolin-3-yl)methyl]amino}benzonitrile] |
| > 1000 nM | – | Cc1cc2cc(CNc3ccc(-n4cnnn4)cc3)c(=O)[nH]c2cc1C [Compound I-51, 6,7-dimethyl-3-({[4-(1H-1,2,3,4-tetrazol-1-yl)phenyl]amino}methyl)-1,2-dihydroquinolin-2-one] |
| 100 to 1000 nM | – | COc1ccc2[nH]c(=O)c(CNc3ccc(C#N)c(OC)c3)cc2c1 [Compound I-52, 2-methoxy-4-{[(6-methoxy-2-oxo-1,2-dihydroquinolin-3-yl)methyl]amino}benzonitrile] |
| > 1000 nM | – | COc1ccc2[nH]c(=O)c(CNc3ccc(-n4ccnc4)cc3)cc2c1 [Compound I-53, 3-({[4-(1H-imidazol-1-yl)phenyl]amino}methyl)-6-methoxy-1,2-dihydroquinolin-2-one] |
| 100 to 1000 nM | – | COc1cc(NCc2cc3ccc(C)cc3[nH]c2=O)ccc1C#N [Compound I-54, 2-methoxy-4-{[(7-methyl-2-oxo-1,2-dihydroquinolin-3-yl)methyl]amino}benzonitrile] |
| 100 to 1000 nM | – | CCOc1ccc2[nH]c(=O)c(CNc3ccc(C#N)c(OC)c3)cc2c1 [Compound I-55, 4-{[(6-ethoxy-2-oxo-1,2-dihydroquinolin-3-yl)methyl]amino}-2-methoxybenzonitrile] |
| 10 to 100 nM | > 1000 nM | COc1cc(NCc2cc3cc(Cl)c(OCCN(C)C)cc3[nH]c2=O)ccc1C#N [Compound I-61, 4-[({6-chloro-7-[2-(dimethylamino)ethoxy]-2-oxo-1,2-dihydroquinolin-3-yl}methyl)amino]-2-methoxybenzonitrile] |
| 10 to 100 nM | > 1000 nM | COc1cc(NCc2cc3cc(Cl)c(OCc4cccnc4)cc3[nH]c2=O)ccc1C#N [Compound I-62, 4-({[6-chloro-2-oxo-7-(pyridin-3-ylmethoxy)-1,2-dihydroquinolin-3-yl]methyl}amino)-2-methoxybenzonitrile] |
| 100 to 1000 nM | – | COc1cc(NCc2cc3cc(Cl)cc(O)c3[nH]c2=O)ccc1C#N [Compound I-96, 4-{[(6-chloro-8-hydroxy-2-oxo-1,2-dihydroquinolin-3-yl)methyl]amino}-2-methoxybenzonitrile] |
